From US6355799B1, “Substituted benzene compounds, process for their preparation, and herbicidal and defoliant compositions containing them” (ISK Americas Incorporated, priority 1997, dated 2002)

Columns and labels:
Format in all cases: in vivo
Details in all cases: rated 14 days after application, 0 = no damage, 100 = complete death
[1] = tested on: redroot pigweed (Amaranthus retroflexus, AMARE); assay: Pre-emerge test, greenhouse herbicide activity screening
How it was run: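 Herbicidal damage is scored 0 (none) to 100 (complete plant death) two weeks after a simulated field spray. Rates span 15–1000 g ai/ha, delivered in acetone at 187 l/ha. For post-emergence treatments, plants have 2–3 leaves and the spray carries 0.25% v/v non-ionic surfactant.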

[2] = tested on: barnyardgrass (Echinochloa crus-galli, ECHCG); assay: as above
How it was run: (§1)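 Rating: 0–100 visual injury, 14 DAA. Application: acetone, 187 l/ha, 15–1000 g ai/ha, flat-fan track sprayer with nozzle 40–45 cm above soil or canopy. Post-emerge runs used 0.25% v/v surfactant on 2–3 leaf plants.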

[3] = tested on: common ragweed (Ambrosia artemisizfolia L., AMBEL); assay: as above
How it was run: as §1

[4] = tested on: green foxtail (Setaria viridis, SETVI); assay: as above
How it was run: as §1

[5] = tested on: ivyleaf morningglory (Ipomoea hederacea, IPOHE); assay: as above
How it was run: as §1

[6] = tested on: johnsongrass (Sorghum halepense, SORHA); assay: as above
How it was run: as §1

[7] = tested on: lambsquarters (Chenopodium album, CHEAL); assay: as above
How it was run: as §1

[8] = tested on: large crabgrass (Digitaria sanguinalis, DIGSA); assay: as above
How it was run: as §1

[9] = tested on: sicklepod (Cassia obtusifolia, CASOB); assay: as above
How it was run: as §1

[10] = tested on: velvetleaf (Abutilon theophrasti, ABUTH); assay: as above
How it was run: as §1

[11] = tested on: field corn (Zea mays L., var. Dekalb 535, CORN); assay: Pre-emerge test, crop safety
How it was run: as §1

[12] = tested on: upland rice (Oryza sp., var. Tebonnet, RICE); assay: Pre-emerge test, crop safety
How it was run: as §1

With `CCOc1ccc(C(=O)Nc2c(OC)c(Cl)cc(F)c2-n2c(=O)cc(C(F)(F)F)n(C)c2=O)cc1` [2-64] the “Pre-emerge Herbicidal Activity, phytotoxicity rating (0-100), AMARE” value ([1]; 63 g ai/ha) was 90, the “Pre-emerge Herbicidal Activity, phytotoxicity rating (0-100), AMARE” value ([1]; 250 g ai/ha) was 100 and the “Pre-emerge Herbicidal Activity, phytotoxicity rating (0-100), ECHCG” value ([2]; 63 g ai/ha) was 0. The “Pre-emerge Herbicidal Activity, phytotoxicity rating (0-100), ECHCG” value ([2]; 250 g ai/ha) was 60, the “Pre-emerge Herbicidal Activity, phytotoxicity rating (0-100), AMBEL” value ([3]; 63 g ai/ha) was 0 and the “Pre-emerge Herbicidal Activity, phytotoxicity rating (0-100), AMBEL” value ([3]; 250 g ai/ha) was 60. The “Pre-emerge Herbicidal Activity, phytotoxicity rating (0-100), SETVI” value ([4]; 63 g ai/ha) was 100, the “Pre-emerge Herbicidal Activity, phytotoxicity rating (0-100), SETVI” value ([4]; 250 g ai/ha) was 100 and the “Pre-emerge Herbicidal Activity, phytotoxicity rating (0-100), IPOHE” value ([5]; 63 g ai/ha) was 0. The “Pre-emerge Herbicidal Activity, phytotoxicity rating (0-100), IPOHE” value ([5]; 250 g ai/ha) was 40, the “Pre-emerge Herbicidal Activity, phytotoxicity rating (0-100), SORHA” value ([6]; 63 g ai/ha) was 10 and the “Pre-emerge Herbicidal Activity, phytotoxicity rating (0-100), SORHA” value ([6]; 250 g ai/ha) was 50. The “Pre-emerge Herbicidal Activity, phytotoxicity rating (0-100), CHEAL” value ([7]; 63 g ai/ha) was 90, the “Pre-emerge Herbicidal Activity, phytotoxicity rating (0-100), CHEAL” value ([7]; 250 g ai/ha) was 100 and the “Pre-emerge Herbicidal Activity, phytotoxicity rating (0-100), DIGSA” value ([8]; 63 g ai/ha) was 40. For the same molecule, the “Pre-emerge Herbicidal Activity, phytotoxicity rating (0-100), DIGSA” value ([8]; 250 g ai/ha) was 70, the “Pre-emerge Herbicidal Activity, phytotoxicity rating (0-100), CASOB” value ([9]; 63 g ai/ha) was 0 and the “Pre-emerge Herbicidal Activity, phytotoxicity rating (0-100), CASOB” value ([9]; 250 g ai/ha) was 100. For the same molecule, the “Pre-emerge Herbicidal Activity, phytotoxicity rating (0-100), ABUTH” value ([10]; 63 g ai/ha) was 100, the “Pre-emerge Herbicidal Activity, phytotoxicity rating (0-100), ABUTH” value ([10]; 250 g ai/ha) was 100 and the “Pre-emerge phytotoxicity rating (0-100), crop damage, CORN” value ([11]; 63 g ai/ha) was 0. The “Pre-emerge phytotoxicity rating (0-100), crop damage, CORN” value ([11]; 250 g ai/ha) was 35, the “Pre-emerge phytotoxicity rating (0-100), crop damage, RICE” value ([12]; 63 g ai/ha) was 10 and the “Pre-emerge phytotoxicity rating (0-100), crop damage, RICE” value ([12]; 250 g ai/ha) was 60.
